Results reported in patent publication US8053585B2, “Protecting group for carboxylic acids that can be photolyzed by visible light” (Cornell Research Foundation, Inc., priority 2006, dated 2011).

System: GluR6 glutamate receptor
Assay: Stability in aqueous solution by whole-cell recording, cells used as glutamate detector
Type: cell-based
Conditions: 2 mM solution, 24 h in the dark at −20° C., pH 7.4
Text: In whole-cell current recording experiments with DECM-caged glutamate, HEK 293 cells stably transfected with cDNA encoding the GluR6 were used. In whole-cell current recording experiments with DECM-caged glycine, HEK 293 cells were transiently transfected with the cDNA of the α1-subunit of the human glycine receptor by using the Polyfect™ transfection reagent (Qiagen GmbH, D-40724, Hilden, Germany). The cDNA of the α1-subunit was kindly provided by Professor H. Betz (Max-Plank-Institute for brain Research, Frankfurt, Germany). The cells were co-transfected with cDNA encoding the green fluorescent protein (pGreen Lantern plasmid, Life Technologies, Gaitherberg, Md.) to detect transfected cells (Chalfie et al., “Green Fluorescent Protein as a Marker for Gene Expression,” Science 263:802-805 (1994), which is hereby incorporated by reference in its entirety).
The cells were used for electrophysiological experiments between 24 and 72 h after each passage. Whole-cell currents evoked by glutamate or glycine (100 μM) were recorded using the whole-cell configuration (Hamill et al., “Improved Patch-Clamp Techniques for High-Resolution Current Recording From Cells and Cell-Free Membrane Patches,” Pfluegers Arch 391:85-100 (1981), which is hereby incorporated by reference in its entirety) at room temperature, −60 mV, and pH 7.4. […]

CCN(CC)c1ccc2c(COC(=O)CCC(N)C(=O)O)cc(=O)oc2c1 (stereo not shown) [DECM-caged glutamate, (7-N,N-Diethylaminocoumarin-4-yl)-methyl-glutamate-trifluoroacetate]
free glutamate in solution of caged compound: no free glutamate was detected
